Results taken from the supplement of paper PMC4862054.

Legend:
Settings in all cases: incubation time: 72 h
CAL-85-1 [1] = assay: normalised response (% of control), CellTox Green; higher = less cell death (100 = DMSO, 0 = benzethonium chloride kill control)
Procedure, shortened: (§1)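 Plates were normalised with 0.1 % DMSO as 100 and a positive kill control as 0. Breast cancer cell lines in 20 µl suspension had been seeded into 384-well plates with compound at 5 concentrations in 10-fold steps over a compound-specific 10,000-fold range, incubated 72 h, and read for CellTox Green fluorescence (485/520 nm) followed by CellTiter-Glo luminescence. Each value is the normalised signal at a single concentration.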

MDA-MB-436 [2] = assay: as above
Procedure, shortened: as §1

HCC1599 [3] = assay: as above
Procedure, shortened: as §1

MDA-MB-468 [4] = assay: as above
Procedure, shortened: as §1

HCC1937 [5] = assay: as above
Procedure, shortened: as §1

HCC1143 [6] = assay: as above
Procedure, shortened: as §1

CAL-120 [7] = assay: as above
Procedure, shortened: as §1

BT-474 [8] = assay: as above
Procedure, shortened: as §1

MFM-223 [9] = assay: as above
Procedure, shortened: as §1

CAL-51 [10] = assay: as above
Procedure, shortened: as §1

HDQ-P1 [11] = assay: as above
Procedure, shortened: as §1

Hs578T [12] = assay: as above
Procedure, shortened: as §1

BT-549 [13] = assay: as above
Procedure, shortened: as §1

MDA-MB-231 [14] = assay: as above
Procedure, shortened: as §1

DU-4475 [15] = assay: as above
Procedure, shortened: as §1

MCF-10A [16] = assay: as above
Procedure, shortened: as §1

MDA-MB-453 [17] = assay: as above
Procedure, shortened: as §1

CAL-85-1 [18] = assay: normalised response (% of control), CellTiter-Glo; higher = more viable cells (100 = DMSO, 0 = benzethonium chloride kill control)
Procedure, shortened: as §1

MDA-MB-436 [19] = assay: as above
Procedure, shortened: as §1

HCC1599 [20] = assay: as above
Procedure, shortened: as §1

CAL-148 [21] = assay: as above
Procedure, shortened: as §1

MDA-MB-468 [22] = assay: as above
Procedure, shortened: as §1

HCC1937 [23] = assay: as above
Procedure, shortened: as §1

HCC1143 [24] = assay: as above
Procedure, shortened: as §1

CAL-120 [25] = assay: as above
Procedure, shortened: as §1

BT-474 [26] = assay: as above
Procedure, shortened: as §1

MFM-223 [27] = assay: as above
Procedure, shortened: as §1

CAL-51 [28] = assay: as above
Procedure, shortened: as §1

HDQ-P1 [29] = assay: as above
Procedure, shortened: as §1

SK-BR-3 = assay: as above
Procedure, shortened: as §1

Hs578T [30] = assay: as above
Procedure, shortened: as §1

BT-549 [31] = assay: as above
Procedure, shortened: as §1

MDA-MB-231 [32] = assay: as above
Procedure, shortened: as §1

DU-4475 [33] = assay: as above
Procedure, shortened: as §1

MCF-10A [34] = assay: as above
Procedure, shortened: as §1

MDA-MB-453 [35] = assay: as above
Procedure, shortened: as §1

CAL-148 [36] = assay: normalised response (% of control), CellTox Green; higher = less cell death (100 = DMSO, 0 = benzethonium chloride kill control)
Procedure, shortened: as §1

SMILES	normalised response (CAL-85-1 [1]) [%]	normalised response (MDA-MB-436 [2]) [%]	normalised response (HCC1599 [3]) [%]	normalised response (MDA-MB-468 [4]) [%]	normalised response (HCC1937 [5]) [%]	normalised response (HCC1143 [6]) [%]	normalised response (CAL-120 [7]) [%]	normalised response (BT-474 [8]) [%]	normalised response (MFM-223 [9]) [%]	normalised response (CAL-51 [10]) [%]	normalised response (HDQ-P1 [11]) [%]	normalised response (Hs578T [12]) [%]	normalised response (BT-549 [13]) [%]	normalised response (MDA-MB-231 [14]) [%]	normalised response (DU-4475 [15]) [%]	normalised response (MCF-10A [16]) [%]	normalised response (MDA-MB-453 [17]) [%]	normalised response (CAL-85-1 [18]) [%]	normalised response (MDA-MB-436 [19]) [%]	normalised response (HCC1599 [20]) [%]	normalised response (CAL-148 [21]) [%]	normalised response (MDA-MB-468 [22]) [%]	normalised response (HCC1937 [23]) [%]	normalised response (HCC1143 [24]) [%]	normalised response (CAL-120 [25]) [%]	normalised response (BT-474 [26]) [%]	normalised response (MFM-223 [27]) [%]	normalised response (CAL-51 [28]) [%]	normalised response (HDQ-P1 [29]) [%]	normalised response (SK-BR-3) [%]	normalised response (Hs578T [30]) [%]	normalised response (BT-549 [31]) [%]	normalised response (MDA-MB-231 [32]) [%]	normalised response (DU-4475 [33]) [%]	normalised response (MCF-10A [34]) [%]	normalised response (MDA-MB-453 [35]) [%]	normalised response (CAL-148 [36]) [%]
O=C(O)C(=O)O.[NH-][C@@H]1CCCC[C@H]1[NH-].[Pt+2] [Oxaliplatin] (1000 nM)	102	95.7	93.9	157	97.7	101	102	95.9	85.6	108	102	63.9	121	98.2	98.1	107	106	95.9	106	100	82.5	91.1	99.5	95.5	96.9	97.7	92.3	128	106	92.8	104	105	97	94.4	96.5	89.2	–
Cc1cnc(NC(=O)Nc2cc(Br)c(C)cc2OC[C@@H]2CNCCO2)cn1 [Rabusertib] (100 nM)	102	110	103	128	128	97.3	99.9	102	–	85.5	80.4	55.6	123	118	106	105	106	99	113	108	107	101	92.4	106	98.1	103	100	72.5	105	109	98.7	104	104	99.1	112	88.1	108
